pIC50: −log10 of the molar value.

For test [1], the target named is HA-GST-Rheb (GTP-γ-S loaded) activating mTORC1 (Homo sapiens (Human), UniProt Q15382). Description: Rheb-dependent in vitro kinase assay (Rheb-IVK; LanthaScreen or Western readout). Type of test: biochemical. Particulars: Rheb-dependent in vitro kinase assay; read-out: IVK IC50. In general terms: TR-FRET usually uses a lanthanide donor and a delayed reading to cut background.

The next test deals with Rheb (Homo sapiens (Human), UniProt Q15382). The experiment in a line: Affinity Selection Mass Spectrometry (ASMS). Type of test: binding. Particulars: affinity (R3/R0) in Affinity Selection Mass Spectrometry assay. Here is the method: Method 2 (Affinity Selection Mass Spectrometry
Protein: Rheb (19 KDa) in the following buffer: 20 mM Tris, pH 8.0, 200 mM NaCl, 2 mM DTT, 5 mM MgCl2 was prepared as under.
Human Rheb protein (I-169) was purified from BL21 (DE3) E. coli using a His-Smt-Rheb expression vector. The cell paste was lysed in lysis buffer (50 mM HEPES pH 7.5, 0.5 M NaCl, 5% Glycerol, 1% CHAPS, EDTA free protease inhibitor tablets, lysozyme to 1 mg/mL, benzonase 250U), sonicated, and purified on a HiTrap Ni Chelating Column (GE Healthcare) using the following buffer: 50 mM HEPES pH 7.5, 0.5 M NaCl, 5% Glycerol, and imidazole increasing in concentration from 5 mM to 500 mM. The His-Smt tag was cleaved using a U1p1 enzyme and dialyzed into 50 mM HEPES pH 7.5, 0.5 M NaCl, 5% Glycerol. The resultant protein was again purified on a Ni Chelating column to remove the U1p1 enzyme and His-Smt tag and then purified by size exclusion chromatography on a Sephacryl S-100 26/60 column into the following final buffer: 20 mM NaPhos pH 7.0, 100 mM NaCl, 5 mM MgCl2, 2 mM TCEP.
Concentrations: 60 μM Rheb, 180 μM GDP and 2 μM of each compound,
Ultrafiltration Filter (Sartorius, Germany) MW cutoff: 10 KDa
• (a) Sample preparation: Prepare sample for each group in 1.5 mL microcentrifuge tube according to the experimental design, total volume 550 μL. In a standard ASMS experiment there are two groups: Protein plus (P+L+) and protein minus (P−L+). • (b) Transfer 50 μL from the 550 μL to a vial as R0 sample. Incubate the rest solution for 30 min at room temperature. Then transfer the 500 μL into an ultrafiltration filter tube and centrifuge at 12×10^3 rpm for ˜10 min, leave about 50 μL solution (otherwise adjust this time). • (c) Add incubation buffer to the ultrafiltration filter tube to about 500 μL. Stir gently and centrifuge mixtures as above, leave about 50 μL solution. • (d) Repeat the step c. Transfer the remaining 50 μL upper layer solution to a new vial as R^3 sample. Sample Extraction: Add 150 μL MeCN to denature the protein completely. Centrifuge at 12×10^3 rpm for 5 min. Transfer the supernatant into LC-MS auto sampler vials for LC-MS analysis (5 uL injection).
Waters Acquity UPLC system, Waters ACQUITY UPLC BEH C18 column (2.1×50 mm, 1.7 μM); Mobile phase A: 0.1% formic acid solution, B: MeCN; 0.3 mL/min, 5 μL injection, gradient elution (Table 5).
Waters Synapt G1 Q-TOF system, positive or negative ion scan modes; Capillary voltage: 3.0 kV; Method: MSE; Mass range: m/z=100-1000; Source temperature: 120° C.; Desolvation temperature: 400° C.; Collision voltage: 35 V; Sampling Cone: 35 V; Extraction Cone: 4.0 V; Cone Gas: 50 L/h; Desolvation Gas: 800 L/h.

HA-GST-Rheb (GTP-γ-S loaded) activating mTORC1, sequence (Q15382 1-181): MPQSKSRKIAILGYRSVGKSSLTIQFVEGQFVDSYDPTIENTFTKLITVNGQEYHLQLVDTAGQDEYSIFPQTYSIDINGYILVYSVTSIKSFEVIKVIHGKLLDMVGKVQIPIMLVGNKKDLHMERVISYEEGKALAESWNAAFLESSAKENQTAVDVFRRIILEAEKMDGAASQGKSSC
Rheb, sequence (Q15382 1-169 limits assumed): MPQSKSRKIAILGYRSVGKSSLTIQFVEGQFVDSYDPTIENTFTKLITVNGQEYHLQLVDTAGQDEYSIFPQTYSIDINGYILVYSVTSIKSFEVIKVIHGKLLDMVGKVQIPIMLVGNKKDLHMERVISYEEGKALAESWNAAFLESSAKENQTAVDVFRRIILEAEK

For orientation: pIC50 means −log10 of the IC50, conventionally taken in molar units. Consider `CN(C)C(=O)c1ccc(Cn2c(C(=O)O)cc3ccc(Sc4ccc(Cl)c(Cl)c4)c(Br)c32)cc1` [I-6, 7-bromo-6-(3,4-dichlorophenylthio)-1-(4-(dimethylcarbamoyl)benzyl)-1H-indole-2-carboxylic acid], for which the pIC50 in test [1] was greater than 5.00. For the same molecule, at Rheb, the “ASMS (R3/R0)” value was “B (an affinity (R3/R0) between 100% and 20%)”.

Turning to `CN(C)C(=O)c1ccc(Cn2c(C(=O)O)cc3c(C#N)cc(Sc4ccc(Cl)c(Cl)c4)cc32)cc1` [I-7, 4-cyano-6-(3,4-dichlorophenylthio)-1-(4-(dimethylcarbamoyl)benzyl)-1H-indole-2-carboxylic acid], in test [1], the pIC50 was greater than 5.00. Besides, the “ASMS (R3/R0)” value at Rheb was “B (an affinity (R3/R0) between 100% and 20%)”.

Take `CN(C)C(=O)c1ccc(Cn2c(C(=O)O)cc3c(-c4ccccc4)cc(Sc4ccc(Cl)c(Cl)c4)cc32)cc1` [I-8, 6-(3,4-dichlorophenylthio)-1-(4-(dimethylcarbamoyl)benzyl)-4-phenyl-1H-indole-2-carboxylic acid]: the pIC50 in test [1] was greater than 5.00. Also, on Rheb, the “ASMS (R3/R0)” value is recorded as “A (an affinity (R3/R0)>100%)”.

Turning to `CN(C)C(=O)c1ccc(Cn2c(C(=O)O)cc3c4ccccc4c(Sc4ccc(Cl)c(Cl)c4)cc32)cc1` [I-9, 5-(3,4-dichlorophenylthio)-3-(4-(dimethylcarbamoyl)benzyl)-3H-benzo[e]indole-2-carboxylic acid], the pIC50 in test [1] was greater than 5.00. Further, on Rheb, the “ASMS (R3/R0)” value is on record as “A (an affinity (R3/R0)>100%)”.

`CN(C)C(=O)c1ccc(Cn2c(C(=O)O)cc3c(C4CC4)cc(Sc4ccc(Cl)c(Cl)c4)cc32)cc1` [I-10, 4-cyclopropyl-6-(3,4-dichlorophenylthio)-1-(4-(dimethylcarbamoyl)benzyl)-1H-indole-2-carboxylic acid]: the pIC50 in test [1] is greater than 5.00. Besides, at Rheb, the “ASMS (R3/R0)” value was “A (an affinity (R3/R0)>100%)”.

For `CN(C)C(=O)c1ccc(Cn2c(C(=O)O)cc3c(Br)cc(SC4CCCCC4)cc32)cc1` [I-11], the negative-log IC50 (pIC50) in test [1] is less than 5.52. For the same molecule, the “ASMS (R3/R0)” value at Rheb was “B (an affinity (R3/R0) between 100% and 20%)”.

For `CN(C)C(=O)c1ccc(Cn2c(C(=O)O)cc3c(Br)cc(SC4CCOCC4)cc32)cc1` [I-12, 4-bromo-1-(4-(dimethylcarbamoyl)benzyl)-6-(tetrahydro-2H-pyran-4-ylthio)-1H-indole-2-carboxylic acid], the pIC50 in test [1] was 4.00 to 5.00. Further, on Rheb, the “ASMS (R3/R0)” value was “C (an affinity (R3/R0)<20%)”.

As for `CN(C)C(=O)c1ccc(Cn2c(C#N)cc3c(Br)cc(Sc4ccc(Cl)c(Cl)c4)cc32)cc1` [I-13], the pIC50 in test [1] was less than 4.00. For the same molecule, at Rheb, the “ASMS (R3/R0)” value is “B (an affinity (R3/R0) between 100% and 20%)”.

`CN(C)C(=O)c1ccc(Cn2c(-c3nn[nH]n3)cc3c(Br)cc(Sc4ccc(Cl)c(Cl)c4)cc32)cc1` [I-14]: in test [1], the negative-log IC50 (pIC50) was less than 5.52. For the same molecule, the “ASMS (R3/R0)” value at Rheb is “B (an affinity (R3/R0) between 100% and 20%)”.

Regarding `CN(C)C(=O)c1ccc(Cn2c(C(=O)O)cc3c(Br)cc(Sc4ccc(Oc5ccccc5)cc4)cc32)cc1` [I-15, 4-bromo-1-(4-(dimethylcarbamoyl)benzyl)-6-(4-phenoxyphenyl-thio)-1H-indole-2-carboxylic acid], in test [1], the negative-log IC50 (pIC50) is greater than 5.00. The “ASMS (R3/R0)” value on Rheb is “B (an affinity (R3/R0) between 100% and 20%)”.

Consider `CN(C)C(=O)c1ccc(Cn2c(C(=O)O)cc3c(SCCc4ccc(Cl)c(Cl)c4)cc(SCCc4ccc(Cl)c(Cl)c4)cc32)cc1` [I-16, 4,6-bis(3,4-dichlorophenethylthio)-1-(4-(dimethylcarbamoyl)benzyl)-1H-indole-2-carboxylic acid], for which, in test [1], the pIC50 is greater than 5.00. Moreover, on Rheb, the “ASMS (R3/R0)” value is “B (an affinity (R3/R0) between 100% and 20%)”.

For `CN(C)C(=O)c1ccc(Cn2c(C(=O)O)cc3ccc(Sc4ccc(Oc5ccccc5)cc4)cc32)cc1` [I-17, 1-(4-(dimethylcarbamoyl)benzyl)-6-(4-phenoxyphenylthio)-1H-indole-2-carboxylic acid], the pIC50 in test [1] was greater than 5.00. Moreover, on Rheb, the “ASMS (R3/R0)” value was “B (an affinity (R3/R0) between 100% and 20%)”.

Take `CN(C)C(=O)c1ccc(Cn2c(C(=O)O)cc3c(Br)cc(SCc4ccc(Cl)c(Cl)c4)cc32)cc1` [I-18]: in test [1], the pIC50 was less than 4.00. At Rheb, the “ASMS (R3/R0)” value was “B (an affinity (R3/R0) between 100% and 20%)”.

For `CN(C)C(=O)c1ccc(Cn2c(C(=O)O)cc3c(Sc4cccc(OC(F)(F)F)c4)cc(Sc4cccc(OC(F)(F)F)c4)cc32)cc1` [I-19, 1-(4-(dimethylcarbamoyl)benzyl)-4,6-bis(3-(trifluoromethoxy)phenylthio)-1H-indole-2-carboxylic acid], the pIC50 in test [1] was greater than 5.00. Also, at Rheb, the “ASMS (R3/R0)” value was “B (an affinity (R3/R0) between 100% and 20%)”.

`CN(C)C(=O)c1ccc(Cn2c(C(=O)O)cc3c(Br)cc(Sc4cccc(OC(F)(F)F)c4)cc32)cc1` [I-20, 4-bromo-1-(4-(dimethylcarbamoyl)benzyl)-6-(3-(trifluoromethoxy)phenylthio)-1H-indole-2-carboxylic acid]: the pIC50 in test [1] is greater than 5.00. Moreover, the “ASMS (R3/R0)” value at Rheb is on record as “A (an affinity (R3/R0)>100%)”.

With `CN1CC(NC(=O)c2cc3c(Sc4ccc(Cl)cc4Cl)cc(Cl)c(Cl)c3[nH]2)C1` [I-21], in test [1], the pIC50 is less than 4.00. Besides, the “ASMS (R3/R0)” value on Rheb is reported as “C (an affinity (R3/R0)<20%)”.

Regarding `CN(C)C(=O)c1ccc(Cn2c(C(=O)O)cc3c(Br)cc(Sc4ccc(C(F)(F)F)cc4)cc32)cc1` [I-22], in test [1], the pIC50 is less than 4.00. The “ASMS (R3/R0)” value on Rheb was “B (an affinity (R3/R0) between 100% and 20%)”.

For the molecule `CN1CCC(CNC(=O)c2cc3c(Br)cc(Sc4ccc5ccccc5c4)cc3n2Cc2ccc(C(=O)N(C)C)cc2)CC1` [I-23], in test [1], the pIC50 is less than 4.00. Besides, the “ASMS (R3/R0)” value at Rheb is “B (an affinity (R3/R0) between 100% and 20%)”.

For the molecule `CN(C)C(=O)c1ccc(Cn2c(C(=O)O)cc3c(Br)cc(SCC4CCCCC4)cc32)cc1` [I-24, 4-bromo-6-(cyclohexylmethylthio)-1-(4-(dimethylcarbamoyl)benzyl)-1H-indole-2-carboxylic acid], the pIC50 in test [1] is greater than 5.00. For the same molecule, the “ASMS (R3/R0)” value on Rheb was “B (an affinity (R3/R0) between 100% and 20%)”.

Take `CN(C)C(=O)c1ccc(Cn2c(C(=O)O)cc3c(Br)cc(SCCc4ccc(Cl)c(Cl)c4)cc32)cc1` [I-25, 4-bromo-6-(3,4-dichlorophenethylthio)-1-(4-(dimethylcarbamoyl)benzyl)-1H-indole-2-carboxylic acid]: the pIC50 in test [1] was greater than 5.00. The “ASMS (R3/R0)” value at Rheb was “B (an affinity (R3/R0) between 100% and 20%)”.

In the case of `CN1CC(NC(=O)c2cc3c(-c4cc(Cl)cc(Cl)c4)cc(Cl)cc3[nH]2)C1` [I-26], the pIC50 in test [1] was less than 4.00. Further, on Rheb, the “ASMS (R3/R0)” value is “B (an affinity (R3/R0) between 100% and 20%)”.

Consider `CN1CCC(CCNC(=O)c2cc3c(Sc4ccc(Cl)cc4Cl)cc(Cl)c(Cl)c3[nH]2)CC1` [I-27], for which the pIC50 in test [1] is less than 4.00. In addition, the “ASMS (R3/R0)” value at Rheb was “B (an affinity (R3/R0) between 100% and 20%)”.

Turning to `CN(C)C(=O)c1ccc(Cn2c(C(=O)O)cc3c(Br)cc(Sc4ccc5ccccc5c4)cc32)cc1` [I-28, 4-bromo-1-(4-(dimethylcarbamoyl)benzyl)-6-(naphthalen-2-ylthio)-1H-indole-2-carboxylic acid], the negative-log IC50 (pIC50) in test [1] was greater than 5.00. Moreover, the “ASMS (R3/R0)” value on Rheb is “B (an affinity (R3/R0) between 100% and 20%)”.

As for `CN1CCC(CCNC(=O)c2cc3c(-c4cc(Cl)cc(Cl)c4)cc(Cl)cc3[nH]2)CC1` [I-31], in test [1], the pIC50 is less than 4.00. Also, at Rheb, the “ASMS (R3/R0)” value is on record as “A (an affinity (R3/R0)>100%)”.

Take `CN1CCCN(c2ccc(NC(=O)c3cc4c(Sc5ccc(Cl)cc5Cl)cc(Cl)c(Cl)c4[nH]3)cc2F)CC1` [I-32, 6,7-dichloro-4-(2,4-dichlorophenyl)sulfanyl-N-[3-fluoro-4-(4-methyl-1,4-diazepan-1-yl)phenyl]-1H-indole-2-carboxamide]: the pIC50 in test [1] was greater than 5.00. The “ASMS (R3/R0)” value on Rheb is “A (an affinity (R3/R0)>100%)”.

The values above are taken from US11339144B2 (Navitor Pharmaceuticals, Inc., priority 2017, dated 2022).
